In patent publication US20250074913A1, “PYRAZOLE DERIVATIVES AS STING AGONISTS” (Hoffmann-La Roche Inc., priority 2022, published 2025):
Like-named read-outs stand apart in the source and are kept apart here.

Columns and labels:
[1] = test system: human PBMC; test: hPBMC cytokine release assay (Luminex, IFN-β); format: cell-based; settings: read-out: Agonist_hPBMC_IFN-β_EC50
Experimental: This is the cytokines concentration detection with Luminex assay for human PBMC supernatant. Human peripheral blood mononuclear cells (PBMC) are treated by compounds with appropriate time. Multiple cytokines are released in the supernatant in response to the compound stimulation. Luminex assay can measure the cytokines concentration in supernatant and the compounds activity on human PBMC can be evaluated.
Frozen PBMC was thawed and cultured in PRMI1640 (GIBCO 11875-093) whole medium with […] Heat inactivated-FBS (HI—FBS), 1% NEAA, […] in CO2 incubator overnight. Cells were centrifuged at 400×g for 5 minutes at 4° C. and the pellet was re-suspended with complete RPMI1640 medium to concentration of 1×10^6 cells/ml in cell culture flask T75 (Thermo Fisher Scientific). Compounds were serially diluted with DMSO and distributed to 96-well flat bottom cell plate (Corning 3599) with Echo555. 90 μL/well PBMC cells were seeded into the plates with Multidrop (Thermo Fisher Scientific). After 24 hours of incubation in CO2 incubator, cells were centrifuged at 400×g for 5 minutes at room temperature, 80 μL supernatant each well was collected for cytokines release test with luminex assay of Human custom ProcartaPlex 5-plex kit (Thermo Fisher Scientific PPX-05). 10 μL supernatant or standards were added to a mixture of color-coded beads, 5 μL Biotinylated detection antibodies specific to the analytes of interest were added and formed an antibody-antigen sandwich. 10 μL Phycoerythrin (PE)-conjugated streptavidin is added to the plate and then read signal of each well on the Luminex 200™. The raw data was analyzed by Millipore Analyst Software and cytokine concentrations were generated accordingly. The EC50 of corresponding cytokine such as interferon-β (IFN-β) was calculated by the 4-parameter sigmoidal concentration response model fitting.

[2] = test system: interferon regulatory factor (IRF) pathway in THP1-Dual™ cells; test: THP1-Dual reporter gene assay (Agonist_THP1_EC50); format: cell-based; settings: Homo sapiens, 20-24 hrs compound treatment, Lucia luciferase (IRF) readout
Source text: This is the cellular reporter assay to evaluate compounds' agonism to interferon regulatory factor (IRF) pathway in THP1-Dual™ cells (InvivoGen, cat number thpd-nfis). THP1-Dual™ cells were derived from the human THP-1 monocyte cell line by stable integration lucia luciferase gene, a new secreted luciferase reporter gene, under the control of an ISG54 (interferon-stimulated gene) minimal promoter in conjunction with five interferon (IFN)-stimulated response elements. As a result, THP1-Dual™ cells allow the study of the IRF pathway, by assessing the activity of Lucia luciferase. Lucia luciferase protein is readily measurable in the cell culture supernatant when using QUANTI-Luc™ (InvivoGen, cat: rep-qlcg-500).
After 20-24 hrs compound treatment in THP1-Dual cells, the compounds' agonism to IRF pathway and cell toxicity were tested by measuring luminescence and OD 450 on an Envision plate reader.
On the day of experiment, 30 μL of test medium (RPMI 1640, 2 mM L-glutamine, 25 mM HEPES, […] heat-inactivated fetal bovine serum) was dispensed in a white 384-well plate (Grenier, cat: 781098) containing the serially diluted compounds (final 1% DMSO) transferred by the Echo550 machine. Then 30 μL of cell suspension (˜33,000 cells, 1.1×10^6 cells/mL) per well was added immediately by thermo multidrop combi dispenser for incubation 20-24 h at 37° C., […]. At the end of the incubation, 10 μL of cellular supernatant was transferred to proxiplate 384-plus plate for IRF detection, and then 10 μL of QUANTI-Luc™ Gold solution was added to the plate that proceeded with the measurement immediately. To detect cell viability, 30 μL of the CCK-8 working solution (Dojindo Molecular Technologies, cat: CK04-20) was added to the cell plate, which was Incubated for 2 hrs in the incubator to measure the absorbance at 450 nm using Envision.

[3] = 24 hours incubation, IFN-β in supernatant

| EC50 [2] [nM] | Compound | EC50 [1, 3] [nM] | EC50 ([1]; prior art compounds (Table 4), IFN-β) [nM] |
| --- | --- | --- | --- |
| 6 | COc1ccc(CCn2nc(C)c(O)c2-c2n[nH]c(-c3nc(C(N)=O)n4cc(C)ncc34)n2)cc1 [Example 70, 1-[3-[4-hydroxy-2-[2-(4-methoxyphenyl)ethyl]-5-methyl-pyrazol-3-yl]-1H-1,2,4-triazol-5-yl]-6-methyl-imidazo[1,5-a]pyrazine-3-carboxamide] | 10 | – |
| 34 | CCCn1nc(C)c(O)c1-c1nc(-n2nc(C(N)=O)c3cc(C)ncc32)n(C)n1 [Example 84, 1-[5-(4-hydroxy-5-methyl-2-propyl-pyrazol-3-yl)-2-methyl-1,2,4-triazol-3-yl]-5-methyl-pyrazolo[3,4-c]pyridine-3-carboxamide] | 18 | – |
| 13 | Cc1cc2c(C(N)=O)nn(-c3nc(-c4c(O)c(C)nn4CCc4cccc(F)c4)n[nH]3)c2cn1 [Example 55, 1-(3-(1-(3-fluorophenethyl)-4-hydroxy-3-methyl-1H-pyrazol-5-yl)-1H-1,2,4-triazol-5-yl)-5-methyl-1H-pyrazolo[3,4-c]pyridine-3-carboxamide] | 32 | – |
| 13 | COCc1ccc(CCn2nc(C)c(O)c2-c2n[nH]c(-n3nc(C(N)=O)c4cc(C)ncc43)n2)cc1 [Example 64, 1-[3-[4-hydroxy-2-[2-[4-(methoxymethyl)phenyl]ethyl]-5-methyl-pyrazol-3-yl]-11H-1,2,4-triazol-5-yl]-5-methyl-pyrazolo[3,4-c]pyridine-3-carboxamide] | 35 | – |
| 6 | CCCn1nc(C)c(O)c1-c1nc(-n2nc(C(N)=O)c3cc(C)ncc32)co1 [Example 58, 1-(2-(4-hydroxy-3-methyl-1-propyl-1H-pyrazol-5-yl)oxazol-4-yl)-5-methyl-1H-pyrazolo[3,4-c]pyridine-3-carboxamide] | 17 | – |
| 10 | CCCCn1nc(C)c(O)c1-c1nc(-n2nc(C(N)=O)c3cc(C)ncc32)co1 [Example 59, 1-(2-(1-butyl-4-hydroxy-3-methyl-1H-pyrazol-5-yl)oxazol-4-yl)-5-methyl-1H-pyrazolo[3,4-c]pyridine-3-carboxamide] | 7 | – |
| 13 | Cc1cc2c(C(N)=O)nn(-c3nc(-c4c(O)c(C)nn4CCc4ccc(F)cc4)n[nH]3)c2cn1 [Example 52, 1-[3-[2-[2-(4-fluorophenyl)ethyl]-4-hydroxy-5-methyl-pyrazol-3-yl]-1H-1,2,4-triazol-5-yl]-5-methyl-pyrazolo[3,4-c]pyridine-3-carboxamide] | 18 | – |
| 25 | COc1ccc(CCn2nc(C)c(O)c2-c2n[nH]c(-n3nc(C(N)=O)c4cc(C)ncc43)n2)cc1 [Example 50, 1-[3-[4-hydroxy-2-[2-(4-methoxyphenyl)ethyl]-5-methyl-pyrazol-3-yl]-1H-1,2,4-triazol-5-yl]-5-methyl-pyrazolo[3,4-c]pyridine-3-carboxamide] | – | – |

The remaining lines, values behind:

| Compound | EC50 [2] [nM] | EC50 [1, 3] [nM] | EC50 ([1]; prior art compounds (Table 4), IFN-β) [nM] |
| --- | --- | --- | --- |
| CCCn1nc(C)c(O)c1-c1n[nH]c(-c2nc(C(N)=O)n3cc(C)ncc23)n1 [Example 80, 1-[3-(4-hydroxy-5-methyl-2-propyl-pyrazol-3-yl)-1H-1,2,4-triazol-5-yl]-6-methyl-imidazo[1,5-a]pyrazine-3-carboxamide] | 20 | 42 | – |
| Cc1cc2c(C(N)=O)nn(-c3coc(-c4c(O)c(C)nn4CCC(F)F)n3)c2cn1 [Example 67, 1-(2-(1-(3,3-difluoropropyl)-4-hydroxy-3-methyl-1H-pyrazol-5-yl)oxazol-4-yl)-5-methyl-1H-pyrazolo[3,4-c]pyridine-3-carboxamide] | 18 | 24 | – |
| Cc1nn(CCc2ccccc2)c(-c2n[nH]c(-c3nc(C(N)=O)cc4c3cnn4C)n2)c1O [Example 82, 4-(5-(4-hydroxy-3-methyl-1-phenethyl-1H-pyrazol-5-yl)-2H-1,2,4-triazol-3-yl)-1-methyl-1H-pyrazolo[4,3-c]pyridine-6-carboxamide] | 8 | 29 | – |
| CCCCn1nc(C)c(O)c1-c1n[nH]c(-c2nc(C(N)=O)n3cc(C)ncc23)n1 [Example 77, 1-[3-(2-butyl-4-hydroxy-5-methyl-pyrazol-3-yl)-1H-1,2,4-triazol-5-yl]-6-methyl-imidazo[1,5-a]pyrazine-3-carboxamide] | 17 | 20 | – |
| CCCn1nc(C)c(O)c1-c1nc(-c2c(F)c(C(N)=O)n3cc(C)ncc23)co1 [Example 93, 7-fluoro-8-[2-(4-hydroxy-5-methyl-2-propyl-pyrazol-3-yl)oxazol-4-yl]-3-methyl-pyrrolo[1,2-a]pyrazine-6-carboxamide] | 6 | 9 | – |
| CC#CCCn1nc(C)c(O)c1-c1n[nH]c(-c2nc(C(N)=O)cc3c2cnn3C)n1 [Example 45, 4-[3-(4-hydroxy-5-methyl-2-pent-3-ynyl-pyrazol-3-yl)-1H-1,2,4-triazol-5-yl]-1-methyl-pyrazolo[4,3-c]pyridine-6-carboxamide] | 9 | 9 | – |
| CCCn1nc(C)c(O)c1-c1n[nH]c(-c2cc(C(N)=O)n3cc(C)ncc23)n1 [Example 91, 8-[3-(4-hydroxy-5-methyl-2-propyl-pyrazol-3-yl)-1H-1,2,4-triazol-5-yl]-3-methyl-pyrrolo[1,2-a]pyrazine-6-carboxamide] | 16 | 38 | – |
| Cc1cn2c(C(N)=O)nc(-c3nc(-c4c(O)c(C)nn4CCc4ccccc4)n[nH]3)c2cn1 [Example 53, 1-[3-[4-hydroxy-5-methyl-2-(2-phenylethyl)pyrazol-3-yl]-1H-1,2,4-triazol-5-yl]-6-methyl-imidazo[1,5-a]pyrazine-3-carboxamide] | 12 | 26 | – |
| CCCn1nc(C)c(O)c1-c1nc(-c2cc(C(N)=O)n3cc(C)ncc23)co1 [Example 94, 8-[2-(4-hydroxy-5-methyl-2-propyl-pyrazol-3-yl)oxazol-4-yl]-3-methyl-pyrrolo[1,2-a]pyrazine-6-carboxamide] | 15 | 6 | – |
| CCCn1nc(C)c(O)c1-c1nc(-n2nc(C(N)=O)c3cc(C)ncc32)c(CO)o1 [Example 83, 1-[5-(hydroxymethyl)-2-(4-hydroxy-5-methyl-2-propyl-pyrazol-3-yl)oxazol-4-yl]-5-methyl-pyrazolo[3,4-c]pyridine-3-carboxamide] | 22 | 23 | – |
| CCCCn1nc(C)c(O)c1-c1nc(-c2nc(C(N)=O)n3cc(C)ncc23)co1 [Example 86, 1-[2-(2-butyl-4-hydroxy-5-methyl-pyrazol-3-yl)oxazol-4-yl]-6-methyl-imidazo[1,5-a]pyrazine-3-carboxamide] | 16 | 30 | – |
| Cc1nn(CC=C(F)F)c(-c2n[nH]c(-c3nc(C(N)=O)cc4c3cnn4C)n2)c1O [Example 34, 4-[3-[2-(3,3-difluoroallyl)-4-hydroxy-5-methyl-pyrazol-3-yl]-1H-1,2,4-triazol-5-yl]-1-methyl-pyrazolo[4,3-c]pyridine-6-carboxamide] | 12 | 11 | – |
| CCn1nc(C)c(O)c1-c1nc(-c2nc(C(N)=O)cc3c2cnn3C)co1 [AE01, reference compound] | – | – | 40 |
| CCn1nc(C)c(O)c1-c1noc(-c2cc(C(N)=O)c3cc(C)ncn23)n1 [Example 27, 7-[3-(2-ethyl-4-hydroxy-5-methyl-pyrazol-3-yl)-1,2,4-oxadiazol-5-yl]-3-methyl-pyrrolo[1,2-c]pyrimidine-5-carboxamide] | 292 | – | – |
| CCCCn1nc(C)c(O)c1-c1n[nH]c(-c2c(F)c(C(N)=O)n3cc(C)ncc23)n1 [Example 76, 8-[3-(2-butyl-4-hydroxy-5-methyl-pyrazol-3-yl)-1H-1,2,4-triazol-5-yl]-7-fluoro-3-methyl-pyrrolo[1,2-a]pyrazine-6-carboxamide] | 15 | 14 | – |
